Earlier results as cited in patent US9763983B2, “Natural killer cells from placenta” (ANTHROGENESIS CORPORATION, priority 2013, dated 2017).

Conditions: disclosed in US 2005/0096351 A1; for hygroscopicity: polymorphic form

Row | SMILES | stability / interconversion of polymorphic form | hygroscopicity
1 | Nc1cccc2c1CN(C1CCC(=O)NC1=O)C2=O (stereo not shown) [Form A, 3-(4-amino-1-oxo-1,3 dihydro-isoindol-2-yl)-piperidene-2,6-dione] | most thermodynamically stable anhydrous polymorph | weakly or not hygroscopic
2 | Nc1cccc2c1CN(C1CCC(=O)NC1=O)C2=O (stereo not shown) [Form D, 3-(4-amino-1-oxo-1,3 dihydro-isoindol-2-yl)-piperidene-2,6-dione] | convert to Form B when stressed at higher relative humidities | either weakly or not hygroscopic
3 | Nc1cccc2c1CN(C1CCC(=O)NC1=O)C2=O (stereo not shown) [Form C, 3-(4-amino-1-oxo-1,3 dihydro-isoindol-2-yl)-piperidene-2,6-dione] | can convert to Form B at higher relative humidities | not hygroscopic below about 85% RH
4 | Nc1cccc2c1CN(C1CCC(=O)NC1=O)C2=O (stereo not shown) [Form B, 3-(4-amino-1-oxo-1,3 dihydro-isoindol-2-yl)-piperidene-2,6-dione] | converts to Form E in aqueous solvent systems | 
